Tested on: erythrocytes infected with 3D7 trophozoites
Assay type: cell-based, Plasmodium falciparum
Settings: sheet Ratio; for Ratio of metabolite abundance, Exp1_1hr: Exp1, 1hr; for Ratio of metabolite abundance, Exp1_3hr: Exp1, 3hr; for Ratio of metabolite abundance, Exp1_6hr: Exp1, 6hr; for Ratio of metabolite abundance, Exp2_1hr: Exp2, 1hr; for Ratio of metabolite abundance, Exp2_3hr: Exp2, 3hr; for Ratio of metabolite abundance, Exp2_6hr: Exp2, 6hr; for Ratio of metabolite abundance, Exp3_1hr: Exp3, 1hr; for Ratio of metabolite abundance, Exp3_3hr: Exp3, 3hr; for Ratio of metabolite abundance, Exp3_6hr: Exp3, 6hr

SMILES	Ratio of metabolite abundance, Exp1_1hr	Ratio of metabolite abundance, Exp1_3hr	Ratio of metabolite abundance, Exp1_6hr	Ratio of metabolite abundance, Exp2_1hr	Ratio of metabolite abundance, Exp2_3hr	Ratio of metabolite abundance, Exp2_6hr	Ratio of metabolite abundance, Exp3_1hr	Ratio of metabolite abundance, Exp3_3hr	Ratio of metabolite abundance, Exp3_6hr
Nc1ncnc2c1ncn2[C@H]1C[C@H](O)[C@@H](COP(=O)(O)OP(=O)(O)OP(=O)(O)O)O1 [dATP]	0.9995	0.8537	0.9613	1.009	1.102	1.077	1.104	0.9965	1.005
Nc1ccn([C@H]2C[C@H](O)[C@@H](COP(=O)(O)OP(=O)(O)O)O2)c(=O)n1 [dCDP]	1.169	1.109	1.155	1.1851	1.387	1.852	1.354	1.295	1.494
Nc1nc2c(ncn2[C@H]2C[C@H](O)[C@@H](COP(=O)(O)O)O2)c(=O)[nH]1 [dGMP]	1.008	1.65	0.6713	1.04	0.9344	0.8266	1.138	0.9165	0.8614
Cc1cn([C@H]2C[C@H](O)[C@@H](COP(=O)(O)O)O2)c(=O)[nH]c1=O [dTMP]	1.094	1.051	1.314	1.082	1.005	1.669	0.8062	1.245	1.203
Cc1cn([C@H]2C[C@H](O)[C@@H](COP(=O)(O)OP(=O)(O)OP(=O)(O)O)O2)c(=O)[nH]c1=O [dTTP]	1.097	0.6301	0.6957	1.256	1.272	1.427	1.1105	1.053	1.149
O=c1ccn([C@H]2C[C@H](O)[C@@H](COP(=O)(O)O)O2)c(=O)[nH]1 [dUMP]	3.473	5.178	2.302	3.524	1.859	4.376	1.122	1.775	0.8871
O=P(O)(O)OC[C@H](O)CO [sn-Glycerol 3-phosphate]	2.74	3.024	2.283	2.716	2.322	2.253	2.3639	3.645	2.752
O=P(O)(OC[C@H](O)CO)OC1[C@H](O)[C@H](O)C(O)[C@H](O)[C@H]1O (stereo partly drawn) [sn-glycero-3-Phospho-1-inositol]	0.9506	1.24	0.9287	1.0526	1.0759	1.139	0.7659	1.067	1.2236
